The data set concerns the target IRF4. The following applies: ASO.

Several values for one entry are separate records, joined by “and”; a condition that tells them apart may be missing. Identical values can stand only once. After the bases stand the sugars from the 5' end (letter, count) and the backbone: PS all phosphorothioate, else s phosphorothioate and o phosphodiester by linkage. Methylation of C is not given here. e = 2'-O-(2-methoxyethyl) (MOE); k = constrained ethyl (cEt); d = 2'-deoxy (DNA)

As to CGTGAGAATGTTGGCT (sugars k3 d10 k3, PS), for the setting “SK-MEL-28, 4 µM”, the target mRNA inhibition came to 49%.

As to TTACTTCCCTGAGAAA (sugars k3 d10 k3, PS), the target mRNA inhibition (SK-MEL-28, 4 µM) amounted to 20%.

Regarding TACCAGCTCAATAATC (sugars k3 d10 k3, PS), under “MM.1R, 1 µM”, the target mRNA inhibition was -27%. Consider CAGCATAGCATTATCT (sugars k3 d10 k3, PS), for which, under “SK-MEL-28, 4 µM”, the target mRNA inhibition was -51%. For CAGCCGAAGCATTTTA (sugars k3 d10 k3, PS), the target mRNA inhibition (MM.1R, 1 µM) is 0%. For the sequence TAGACTGACAGCCGAA (sugars k3 d10 k3, PS), the target mRNA inhibition (MM.1R, 1 µM) came to 3%. AGATAACATGAGAGTG (sugars k3 d10 k3, PS): the target mRNA inhibition (SK-MEL-28, 4 µM) was determined as 41%. Same read-out and setting: in the case of TAAGGAACAAGTGTAT (sugars k3 d10 k3, PS) it was 18%. Regarding CGAGAACGCACGGACG (sugars k3 d10 k3, PS), the target mRNA inhibition (MM.1R, 1 µM) is -11%.

For the sequence “GCATTTTATCATCCGA (sugars kkdddddddddkekek, PS)”, for the setting “MM.1R, 1 µM”, the target mRNA inhibition came out at 48%. As for ACAGAGGTGGGAGTAC (sugars k3 d10 k3, PS), the target mRNA inhibition (SK-MEL-28, 4 µM) is -74%.

On to TCTTTATGCGAAGAAT (sugars k3 d10 k3, PS), for which the target mRNA inhibition (SK-MEL-28, 4 µM) amounted to 42%. Still for that read-out and setting: to CACCCACACAAGTCTT (sugars k3 d10 k3, PS) belongs 9%. As to CCTGTACACTTTGTAC (sugars k3 d10 k3, PS), the target mRNA inhibition (MM.1R, 1 µM) is -2%. On the same count and under the same terms, to “AAGCTTGATAAAGGCT (sugars kddddddddddkekek, PS)” belongs 3%.

“AGCTTGATAAAGGCTG (sugars kkdddddddddkdkdk, PS)”: under “MM.1R, 1 µM”, the target mRNA inhibition is -3%. For the sequence GAGCCTGGGACTCAGG (sugars k3 d10 k3, PS), the target mRNA inhibition is, setting by setting: (MM.1R, 0.074 µM) 3%; (MM.1R, 0.222 µM) 4%; (MM.1R, 0.666 µM) -3%; (MM.1R, 2 µM) 7%; (SK-MEL-28, 0.185 µM) 7%; (SK-MEL-28, 4 µM) 49%. The target mRNA inhibition (SK-MEL-28, 5 µM) was found to be 58% and the target mRNA inhibition (SK-MEL-28, 15 µM) was 87%. Take “AAGCATTTTATCATCC (sugars kkkddddddddkekek, PS)”: under “MM.1R, 1 µM”, the target mRNA inhibition was found to be 10%. For the sequence “ACTTTTAGAGAGGAGA (sugars k2 d9 e3 k2, PS)”, where the note is “MM.1R, 1 µM”, the target mRNA inhibition stood at 36%. Consider CTCACTATTAAACAGC (sugars k3 d10 k3, PS), for which, for the setting “SK-MEL-28, 4 µM”, the target mRNA inhibition worked out at 24%. With TGTAACTGACTAACAG (sugars k3 d10 k3, PS), the target mRNA inhibition (MM.1R, 1 µM) was -31%. With GGCCTCCCCAAGGCTA (sugars k3 d10 k3, PS), the target mRNA inhibition (SK-MEL-28, 4 µM) was determined as 18%. For “TCAGTTTGTGAAGCAT (sugars kddddddddddkekek, PS)”, under “MM.1R, 1 µM”, the target mRNA inhibition worked out at 21%. Take AGGAGAGGCTGAGATA (sugars k3 d10 k3, PS): the target mRNA inhibition (SK-MEL-28, 4 µM) is 21%. With “ACAGTGACTTGCATCC (sugars kkddddddddddkeke, PS)”, for the setting “MM.1R, 1 µM”, the target mRNA inhibition was found to be 30%.

In the case of GTGGAACTCTAGTGTC (sugars k3 d10 k3, PS), the target mRNA inhibition (SK-MEL-28, 4 µM) stood at 12%. Regarding CGTGTGCTTGCCAAGC (sugars k3 d10 k3, PS), the target mRNA inhibition runs as follows: (MM.1R, 0.0625 µM) -3%; (MM.1R, 0.25 µM) 31%; (MM.1R, 1 µM) 67% and 66% and 56%; (MM.1R, 4 µM) 81%. Turning to AATCACCCTGGTCACC (sugars k3 d10 k3, PS), the target mRNA inhibition (MM.1R, 1 µM) was 1%. Regarding GTTAACAATATGCTTC (sugars k3 d10 k3, PS), the target mRNA inhibition (SK-MEL-28, 4 µM) was determined as 25%. Consider AGACATTACTAGATTG (sugars k3 d10 k3, PS), for which the target mRNA inhibition (SK-MEL-28, 4 µM) came to 66%.

Turning to TCCTATGGTCAGCCTC (sugars k3 d10 k3, PS), under “SK-MEL-28, 4 µM”, the target mRNA inhibition worked out at 48%.

As to ACCTGGCAACCATTTT (sugars k3 d10 k3, PS), the target mRNA inhibition (SK-MEL-28, 4 µM) is 4%. TCGAGATCAGTCTCAA (sugars k3 d10 k3, PS): the target mRNA inhibition (SK-MEL-28, 4 µM) is 58% and 82%. Regarding TCTGAGGGTCTGGAAA (sugars k4 d8 k4, PS), for the setting “SK-MEL-28, 4 µM”, the target mRNA inhibition was determined as 3%. As for TAAATTCTAGTTTGCC (sugars k3 d10 k3, PS), for the setting “SK-MEL-28, 4 µM”, the target mRNA inhibition worked out at 68%. Take “CTTGATAAAGGCTGAA (sugars kdddddddddkekeke, PS)”: under “MM.1R, 1 µM”, the target mRNA inhibition came to 5%. Take AAGCATAAAAGGTTCC (sugars k3 d10 k3, PS): the target mRNA inhibition (SK-MEL-28, 4 µM) amounted to 28%. For the sequence “AGTTGTAAATGAGTCG (sugars kkdddddddddkekek, PS)”, the target mRNA inhibition runs as follows: (MM.1R, 0.074 µM) 10%; (MM.1R, 0.222 µM) 31%; (MM.1R, 0.666 µM) 47%; (MM.1R, 1 µM) 56%; (MM.1R, 2 µM) 66%. For the sequence AGCCAGCCAGAGGTTC (sugars k3 d10 k3, PS), the target mRNA inhibition (SK-MEL-28, 4 µM) turned out to be 30%.

AAGATCTCCATGGTGC (sugars k3 d10 k3, PS): the target mRNA inhibition runs as follows: (MM.1R, 0.0625 µM) 4%; (MM.1R, 0.25 µM) 10%; (MM.1R, 1 µM) 39% and 29%; (MM.1R, 4 µM) 56%. Take TCTCAAGGAGATCCAC (sugars k3 d10 k3, PS): the target mRNA inhibition (SK-MEL-28, 4 µM) is 1%. As to CATTCACACTGCCGTG (sugars k3 d10 k3, PS), the target mRNA inhibition (MM.1R, 1 µM) was 6%.

TTCCATGCTTGTCTCG (sugars k3 d10 k3, PS): the target mRNA inhibition (SK-MEL-28, 4 µM) came to 62%.

As to “CAGTGATGTCAGGTTT (sugars kkdddddddddekeke, PS)”, for the setting “MM.1R, 1 µM”, the target mRNA inhibition was 47%. Consider “GTGATGTCAGGTTTTC (sugars kkdddddddddkdkdk, PS)”, for which the target mRNA inhibition (MM.1R, 1 µM) is 27%. As to TCTAAGGCAAGCTGAA (sugars k3 d10 k3, PS), the target mRNA inhibition (SK-MEL-28, 4 µM) is 21%. The same measure, in the same setting: to CTAAATCACCCTGGTC (sugars k3 d10 k3, PS) belongs 47%. Turning to “CAGTTGTAAATGAGTC (sugars kkdddddddddekeke, PS)”, the target mRNA inhibition (H929, 0.00067 µM) came out at 1%; the target mRNA inhibition (H929, 0.002 µM) came to 27%; the target mRNA inhibition (H929, 0.00667 µM) worked out at 45%; the target mRNA inhibition (H929, 0.02 µM) worked out at 60%; the target mRNA inhibition (H929, 0.04 µM) was 34%; the target mRNA inhibition (KMS11, 0.2 µM) is 83% and 90%. Moreover, the target mRNA inhibition by setting is: (MM.1R, 0.074 µM) 12%; (MM.1R, 0.222 µM) 39%; (MM.1R, 0.666 µM) 65%; (MM.1R, 1 µM) 72%; (MM.1R, 2 µM) 88%.

“TTGATGTGATAGCTGA (sugars kddddddddddkekek, PS)”: the target mRNA inhibition (MM.1R, 1 µM) was determined as 12%.

Take AGGCTAATCAGAATGG (sugars k3 d10 k3, PS): under “SK-MEL-28, 4 µM”, the target mRNA inhibition is 42%. As for AATGCACCTGGGAGAC (sugars k3 d10 k3, PS), the target mRNA inhibition (SK-MEL-28, 4 µM) came out at 62%.

For the sequence GGAAAGAGCTTTGGTG (sugars k3 d10 k3, PS), the target mRNA inhibition (SK-MEL-28, 4 µM) was found to be 12%.

With GAACACTTTGAGGTGA (sugars k3 d10 k3, PS), the target mRNA inhibition (SK-MEL-28, 4 µM) came to 14%. The same measure, in the same setting: to CAAAATGGTGTGTAAG (sugars k3 d10 k3, PS) belongs 25%. On the same count and under the same terms, to GTTGTAAATGAGTCGG (sugars k3 d10 k3, PS) belongs 87% and 81%. Still for that read-out and setting: in the case of ACCTACCTGCCCTTGG (sugars k3 d10 k3, PS) it was 28%.

In the case of GTGTCTAAAGTCCCAT (sugars k3 d10 k3, PS), the target mRNA inhibition (MM.1R, 1 µM) was 18% and 28%.

Turning to “GCACATCAATGTTTTA (sugars k2 d9 e3 k2, PS)”, for the setting “MM.1R, 1 µM”, the target mRNA inhibition is 20%. Turning to “AAGTGTCTAAAGTCCC (sugars kkdddddddddkdkdk, PS)”, the target mRNA inhibition (MM.1R, 1 µM) was 13% and 21%.

With CTGGGTTTTCTGTAGG (sugars k3 d10 k3, PS), where the note is “SK-MEL-28, 4 µM”, the target mRNA inhibition came to 48%. Turning to ACATTACTAGATTGTA (sugars k3 d10 k3, PS), the target mRNA inhibition (SK-MEL-28, 4 µM) came to 41%. On to CAACACGGGAATTTCC (sugars k3 d10 k3, PS), for which the target mRNA inhibition (SK-MEL-28, 4 µM) was 55%.

Take GCAGAACGAGGTAAAT (sugars k3 d10 k3, PS): the target mRNA inhibition (SK-MEL-28, 4 µM) was 62%.

Regarding AGTGACCACGAGGCCC (sugars k3 d10 k3, PS), the target mRNA inhibition (SK-MEL-28, 4 µM) came to 15%. Consider AAACAGAGACGCGGTG (sugars k3 d10 k3, PS), for which the target mRNA inhibition (SK-MEL-28, 4 µM) is 18%.

ATCTGTATAGTTCTCA (sugars k3 d10 k3, PS): the target mRNA inhibition (MM.1R, 1 µM) stood at 55%. On to “TGTTACCGATGCTTCA (sugars kddddddddddkekek, PS)”, for which the target mRNA inhibition (MM.1R, 1 µM) was 26% and 18%.

With GCTAAACTCCTAAGTA (sugars k3 d10 k3, PS), the target mRNA inhibition (SK-MEL-28, 4 µM) was found to be 30%. Same read-out and setting: to CTATGCTGAACCCCAC (sugars k3 d10 k3, PS) belongs 1%; to GTACTTGCCGCTGTCG (sugars k3 d10 k3, PS), 27%; to CATAAAAGGTTCCTGT (sugars k3 d10 k3, PS), 9%. “AGTGATGTCAGGTTTT (sugars kkkdddddddddkeke, PS)”: the target mRNA inhibition (MM.1R, 0.074 µM) was 15%; the target mRNA inhibition (MM.1R, 0.222 µM) stood at 36%; the target mRNA inhibition (MM.1R, 0.666 µM) stood at 55%; the target mRNA inhibition (MM.1R, 1 µM) was determined as 59%; the target mRNA inhibition (MM.1R, 2 µM) was determined as 79%.

Take TGCTAGGATTCCTAAC (sugars k3 d10 k3, PS): under “SK-MEL-28, 4 µM”, the target mRNA inhibition was 26%. On to TCCTGGCAGTGCTCTC (sugars k3 d10 k3, PS), for which the target mRNA inhibition (SK-MEL-28, 4 µM) worked out at 60%.

Take AACGAGTTGACACAGG (sugars k3 d10 k3, PS): where the note is “SK-MEL-28, 4 µM”, the target mRNA inhibition was found to be 55%. CCAAGAGGTGCGAGTA (sugars k3 d10 k3, PS): the target mRNA inhibition (SK-MEL-28, 4 µM) turned out to be 33%. On the same count and under the same terms, to TTAAGATTTATGTTCC (sugars k3 d10 k3, PS) belongs 64%. Regarding CAATGGAGATACTTGT (sugars k3 d10 k3, PS), the target mRNA inhibition (MM.1R, 1 µM) was -16%.

On to CCGCTCAACCAGTTCC (sugars k3 d10 k3, PS), for which the target mRNA inhibition (MM.1R, 1 µM) is -12%.

(Values after the OligoGym collection.)
